Like-named read-outs stand apart in the source and are kept apart here.
How the values were obtained:
HCV replicon gt1a_H77 = experiment: Cell-based HCV replicon assay (TaqMan), genotype 1a (H77); conditions: replicon 1a (H77), replicon RNA by TaqMan, day 3
Protocol: (§1) Measurement of inhibition by compounds of the present invention was performed using the HCV replicon system. Several different replicons encoding different HCV genotypes or mutations were used. In addition, potency measurements were made using different formats of the replicon assay, including different ways of measurements and different plating formats. See Jan M. Vrolijk et al., A replicons-based bioassay for the measurement of interferons in patients with chronic hepatitis C, 110 J. VIROLOGICAL METHODS 201 (2003); Steven S. Carroll et al., Inhibition of Hepatitis C Virus RNA Replication by 2′-Modified Nucleoside Analogs, 278(14) J. BIOLOGICAL […] 11979 (2003). However, the underlying principles are common to all of these determinations, and are outlined below.
(§2) Compounds of the present invention were assayed for cell-based anti-HCV activity using the following protocol. Replicon cells were seeded at 5000 cells/well in 96-well collagen I-coated Nunc plates in the presence of the test compound. Various concentrations of test compound, typically in 10 serial 2-fold dilutions, were added to the assay mixture, with the starting concentration ranging from 250 μM to 1 μM. The final concentration of DMSO was 0.5%, fetal bovine serum was 5%, in the assay media. Cells were harvested on day 3 by the addition of 1× cell lysis buffer (Ambion cat #8721). The replicon RNA level was measured using real time PCR (TaqMan® assay). The amplicon was located in 5B. The PCR primers were: 5B.2F, […] (SEQ. ID NO. 1); 5B.2R, […] (SEQ. ID NO. 2); the probe sequence was FAM-labeled […] (SEQ. ID NO. 3). GAPDH RNA was used as endogenous control and was amplified in the same reaction as NS5B (multiplex PCR) using primers and VIC-labeled probe recommended by the manufacturer (PE Applied Biosystem). The real-time RT-PCR reactions were run on ABI PRISM 7900HT Sequence Detection System using the following program: 48° C. for 30 minutes, 95° C. for 10 minutes, 40 cycles of 95° C. for 15 sec, 60° C. for 1 minute. The ΔCT values (CT5B-CTGAPDH) were plotted against the concentration of test compound and fitted to the sigmoid dose-response model using XLfit4 (MDL). […] Alternatively, to quantitate the absolute amount of replicon RNA, a standard curve was established by including serially diluted T7 transcripts of replicon RNA in the Taqman assay. All TaqMan® reagents were from PE Applied Biosystems. Such an assay procedure was described in detail in e.g. Malcolm et al., Antimicrobial Agents and Chemotherapy 50: 1013-1020 (2006).
(§3) Wherein gt1a_H77 was prepared as described in Yi et al., J Virol. 2004, 78(15):7904-15; gt1b_con1 was prepared as described in Lohmann et al., Science 1999, 285(5424):110-3; and gt2a_JFH was prepared as described in Kato et al., Gastroenterology. 2003, 125(6):1808-17. Chimeric replicons contain NS5A from patient isolates of genotypes 1a, 1b, 2b, 3a and 4a as indicated.

HCV replicon gt1b_con1 = experiment: Cell-based HCV replicon assay (TaqMan), genotype 1b (Con1); conditions: replicon 1b (Con1), replicon RNA by TaqMan, day 3
Protocol: as §1, §2, §3

HCV replicon gt2a_JFH = experiment: Cell-based HCV replicon assay (TaqMan), genotype 2a (JFH); conditions: replicon 2a (JFH), replicon RNA by TaqMan, day 3
Protocol: as §1, §2, §3

[1] = system: HCV chimeric replicon with NS5A of genotype 3a (NC00982); experiment: Cell-based HCV replicon assay (TaqMan), chimeric replicon genotype 3a (NC00982); conditions: replicon RNA by TaqMan, day 3
Protocol: as §1, §2, §3

[2] = system: HCV chimeric replicon with NS5A of genotype 4a (DQ41878); experiment: Cell-based HCV replicon assay (TaqMan), chimeric replicon genotype 4a (DQ41878); conditions: Hepatitis C virus, 72 h, read-out: HCV replicon EC50 4a (DQ41878)
Protocol: as §1, §2, §3

[3] = system: HCV replicon 1a (Y93H) mutant; experiment: Cell-based HCV replicon assay (TaqMan), genotype 1a mutant Y93H; conditions: read-out: HCV replicon EC50 1a (Y93H)
Protocol: as §1, §2, §3

[4] = Hepatitis C virus, 72 h, read-out: HCV replicon EC50 3a (NC00982), chimeric replicon 3a (NC00982)

Compound	EC50 (HCV replicon gt1a_H77; Hepatitis C virus, 72 h) [nM]	EC50 (HCV replicon gt1b_con1; Hepatitis C virus, 72 h) [nM]	EC50 (HCV replicon gt2a_JFH; Hepatitis C virus, 72 h) [nM]	EC50 [1, 4] [nM]	EC50 [2] [nM]	EC50 ([3]; Hepatitis C virus, 72 h) [nM]	EC50 (HCV replicon gt1a_H77) [nM]	EC50 (HCV replicon gt1b_con1) [nM]	EC50 (HCV replicon gt2a_JFH) [nM]	EC50 ([1]; chimeric replicon 3a (NC00982), read-out: HCV replicon EC50 3a (NC00982)) [nM]	EC50 ([3]; replicon 1a mutant Y93H, replicon RNA by TaqMan, day 3) [nM]
COC(=O)NC(C(=O)N1CCCC1c1ncc(-c2ccc(-c3ccc4c(ccc5nc([C@@H]6C[Si](C)(C)CN6C(=O)C(NC(=O)OC)C(C)C)[nH]c54)c3)cc2)[nH]1)C(C)C (stereo partly drawn) [Compound 1]	0.003	0.003	0.003	0.26	0.067						
COC(=O)NC(C(=O)N1C[Si](C)(C)CC1c1ncc(-c2ccc(-c3ccc4c(ccc5nc([C@@H]6CCCN6C(=O)C(NC(=O)OC)C(C)C)[nH]c54)c3)cc2)[nH]1)C(C)C (stereo partly drawn) [Compound 2]	0.01	0.004	0.019	0.05							
COC(=O)NC(C(=O)N1C2CCC(C2)C1c1ncc(-c2ccc(-c3ccc4c(ccc5nc([C@@H]6C[Si](C)(C)CN6C(=O)C(NC(=O)OC)C(C)C)[nH]c54)c3)cc2)[nH]1)C(C)C (stereo partly drawn) [Compound 15]	0.088	0.011	0.12	1		131					
COC(=O)NC(C(=O)N1C[Si](C)(C)CC1c1ncc(-c2ccc(-c3ccc4c(ccc5nc([C@@H]6C7CCC(C7)N6C(=O)C(NC(=O)OC)C(C)C)[nH]c54)c3)cc2)[nH]1)C(C)C (stereo partly drawn) [Compound 16]	0.04	0.004	0.06	0.23		146					
COC(=O)NC(C(=O)N1C[Si](C)(C)CC1c1ncc(-c2ccc(-c3ccc4c(ccc5nc([C@@H]6CCCN6C(=O)C(NC(=O)OC)C(C)C)[nH]c54)c3)s2)[nH]1)C(C)C (stereo partly drawn) [Compound 20]	0.14	0.004	0.3	0.26		921					
COC(=O)N[C@H](C(=O)N1CC(F)(F)C[C@H]1c1ncc(-c2ccc3oc(-c4ccc5c(ccc6nc([C@@H]7C[Si](C)(C)CN7C(=O)[C@@H](NC(=O)OC)C(C)C)[nH]c65)c4)cc3c2)[nH]1)C(C)C [Compound 42]							0.012	0.005	> 10	11.4	103
COC(=O)N[C@H](C(=O)N1C[Si](C)(C)C[C@H]1c1ncc(-c2ccc(-c3ccc4c(ccc5nc([C@@H]6CCCN6C(=O)[C@@H](NC(=O)OC)C(C)C)[nH]c54)c3)cc2OCCO)[nH]1)C(C)C [Compound 44]	> 1	0.007	> 10	31		1390					
COC(=O)N[C@H](C(=O)N1C[Si](C)(C)C[C@H]1c1ncc(-c2ccc(-c3ccc4c(ccc5nc([C@@H]6CCCN6C(=O)[C@@H](NC(=O)OC)C(C)C)[nH]c54)c3)cc2OCCOC(C)=O)[nH]1)C(C)C [Compound 45]	> 1	0.009	> 10	52		2640					
COC(=O)N[C@H](C(=O)N1C[Si](C)(C)C[C@H]1c1ncc(-c2ccc(-c3ccc4c(ccc5nc([C@@H]6CCCN6C(=O)[C@@H](NC(=O)OC)C(C)C)[nH]c54)c3)cc2OC)[nH]1)C(C)C [Compound 46]	0.26	0.004	0.6	2.4		497					
COC(=O)N[C@H](C(=O)N1C[Si](C)(C)C[C@H]1c1ncc(-c2ccc(-c3ccc4c(ccc5nc([C@@H]6CCCN6C(=O)[C@@H](NC(=O)OC)C(C)C)[nH]c54)c3)cc2C2CC2)[nH]1)C(C)C [Compound 47]	0.4	0.007	1.7	5.5		1600					
COC(=O)N[C@H](C(=O)N1C[Si](C)(C)C[C@H]1c1ncc(-c2ccc(-c3ccc4c(ccc5nc([C@@H]6CCCN6C(=O)[C@@H](NC(=O)OC)C(C)C)[nH]c54)c3)cc2F)[nH]1)C(C)C [Compound 48]	0.05	0.004	0.07	0.25		329					
COC(=O)N[C@H](C(=O)N1C[Si](C)(C)C[C@H]1c1ncc(-c2ccc(-c3ccc4c(ccc5nc([C@@H]6CCCN6C(=O)[C@@H](NC(=O)OC)C(C)C)[nH]c54)c3)nc2)[nH]1)C(C)C [Compound 49]	0.04	0.014	0.037	0.2		185					
COC(=O)N[C@H](C(=O)N1C[Si](C)(C)C[C@H]1c1ncc(-c2ccc(-c3ccc4c(ccc5nc([C@@H]6CCCN6C(=O)[C@@H](NC(=O)OC)C(C)C)[nH]c54)c3)cc2-c2cccs2)[nH]1)C(C)C [Compound 50]	0.505	0.008	1.62	3		1150					
COC(=O)N[C@H](C(=O)N1C[Si](C)(C)C[C@H]1c1ncc(-c2ccc(-c3ccc4c(ccc5nc([C@@H]6CCCN6C(=O)[C@@H](NC(=O)OC)C(C)C)[nH]c54)c3)cc2-c2ccncc2)[nH]1)C(C)C [Compound 51]	> 1	0.05	> 10	> 100		8420					
COC(=O)N[C@H](C(=O)N1C[Si](C)(C)C[C@H]1c1ncc(-c2ccc(-c3ccc4c(ccc5nc([C@@H]6C[C@@H](F)CN6C(=O)[C@@H](NC(=O)OC)C(C)C)[nH]c54)c3)c(F)c2)[nH]1)C(C)C [Compound 57]	0.068	< 0.05	0.069	0.798	0.652	50					
COC(=O)N[C@H](C(=O)N1C[Si](C)(C)C[C@H]1c1ncc(-c2ccc(-c3ccc4c(ccc5nc([C@@H]6CC(F)(F)CN6C(=O)[C@@H](NC(=O)OC)C(C)C)[nH]c54)c3)c(F)c2)[nH]1)C(C)C [Compound 58]	0.03	0.002	0.15	0.8	0.36	118					
COC(=O)N[C@H](C(=O)N1CC(F)(F)C[C@H]1c1ncc(-c2ccc(-c3ccc4c(ccc5nc([C@@H]6C[Si](C)(C)CN6C(=O)[C@@H](NC(=O)OC)C(C)C)[nH]c54)c3)c(F)c2)[nH]1)C(C)C [Compound 60]	0.06	0.003	0.09	2.9	0.129	96					
COC(=O)N[C@H](C(=O)N1CC(O)C[C@H]1c1ncc(-c2ccc(-c3ccc4c(ccc5nc([C@@H]6C[Si](C)(C)CN6C(=O)[C@@H](NC(=O)OC)C(C)C)[nH]c54)c3)cc2)[nH]1)C(C)C (stereo partly drawn) [Compound 65]	0.06	0.004	0.3	1.7		44					
COC(=O)N[C@H](C(=O)N1C[Si](C)(C)C[C@H]1c1ncc(-c2ccc(-c3ccc4c(ccc5nc([C@@H]6CC(F)(F)CN6C(=O)[C@@H](NC(=O)OC)C(C)C)[nH]c54)c3)cc2F)[nH]1)C(C)C [Compound 71]	0.12	< 0.002	0.45	0.9		188					
COC(=O)N[C@H](C(=O)N1C[Si](C)(C)C[C@H]1c1ncc(-c2ccc(-c3ccc4c(ccc5nc([C@@H]6CC(F)(F)CN6C(=O)[C@@H](NC(=O)OC)C(C)C)[nH]c54)c3)cn2)[nH]1)C(C)C [Compound 72]	0.1	0.004	0.496	2.41		246					

Reference: patent US8609635B2, “Fused tricyclic silyl compounds and methods of use thereof for the treatment of viral diseases” (priority 2010, dated 2013)
